Laboratory results: patent US10857246B2, “Nuclear imaging and radiotherapeutics agents targeting carbonic anhydrase IX and uses thereof” (THE JOHNS HOPKINS UNIVERSITY, priority 2015, dated 2020)
Several values for one entry are separate records, joined by “and”; a condition that tells them apart may be missing. Equal entries are not always repeated.

Test system: CAIX-expressing SK-RC-52 tumors
Experiment: Biodistribution in mice bearing SK-RC-52 xenografts
Format: in vivo
Conditions: for Biodistribution Bladder / Biodistribution Blood / Biodistribution Brain / Biodistribution Fat / Biodistribution Heart / Biodistribution Kidney / Biodistribution Liver / Biodistribution Lung / Biodistribution Muscle / Biodistribution Pancreas / Biodistribution Small intestine / Biodistribution Spleen / Biodistribution Stomach / Biodistribution Tumor / Tumor/Kidney ratio / Tumor/Blood ratio / Tumor/Muscle ratio: 740 kBq i.v.
Method: Animal experiments were performed in accordance with protocols approved by the Johns Hopkins Animal Care and Use Committee (ACUC). Six-week-old female NOD/SCID mice were purchased from the Animal Resource Core of the Sidney Kimmel Comprehensive Cancer Center of Johns Hopkins and were subcutaneously injected in the lower left flank or upper right flank with 1×10^6 SK-RC-52 cells in RPMI 1640 GlutaMAX™ media (Life Technologies, Frederick, Md.) supplemented with 1% fetal bovine serum (FBS). Mice were monitored for tumor size and used for SPECT/CT imaging when the size of the tumor reached 100 mm^3.
Mice bearing SK-RC-52 xenografts at lower left flank were injected intravenously with 740 kBq (20 μCi) of [^111In]XYIMSR-01, or [^177Lu]XYIMSR-01 in 200 μL of PBS. For competitive blocking, same tumor bearing mice were injected with 740 kBq (20 μCi) of [^111In]XYIMSR-01 and 200 nmole of 8 in 200 μL of PBS. At 1 h, 4 h, 8 h, 24 h and 48 h post-injection, mice were sacrificed by cervical dislocation and the blood was immediately collected by cardiac puncture. Heart, lungs, pancreas, spleen, fat, brain, muscle, small intestines, liver, stomach, kidney, urinary bladder, and tumor were collected. Each organ was weighed and the tissue radioactivity was measured with an automated gamma counter (1282 Compugamma CS, Pharmacia/LKBNuclear, Inc., Mt. Waverly, Vic. Australia). The percentage of injected dose per gram of tissue (% ID/g) was calculated by comparison with samples of a standard dilution of the initial dose. All measurements were corrected for radioactive decay.
Data were expressed as mean±standard deviation (SD). Prism software (GraphPAD, San Diego, Calif.) was used to determine statistical significance. Statistical significance was calculated using a paired t test. P-values <0.0001 were considered significant.
Mice bearing SK-RC-52 xenografts within the lower left flank were injected intravenously with 740 kBq (20 μCi) of [Al^18F]XYIMSR-04 in 200 μL of PBS. At specific 1 hour time point mentioned in the paper, mice (n=5) were sacrificed by cervical dislocation and the blood was immediately collected by cardiac puncture. Heart, lungs, pancreas, spleen, fat, brain, muscle, small intestines, liver, bone, stomach, kidney, urinary bladder, and tumor were collected. Each organ was weighed and the tissue radioactivity was measured with an automated gamma counter (1282 Compugamma CS, Pharmacia/LKBNuclear, Inc., Mt. Waverly, Vic. Australia). The percentage of injected dose per gram of tissue (% ID/g) was calculated by comparison with samples of a standard dilution of the initial dose. All measurements were corrected for radioactive decay. Data were expressed as mean±standard deviation (SD). Prism software (GraphPAD, San Diego, Calif.) was used to determine statistical significance. Statistical significance was calculated using a paired t test. P-values <0.0001 were considered significant.
Mice bearing SK-RC-52 xenografts within the upper right flank were injected intravenously with 740 kBq (20 μCi) of [^64Cu]XYIMSR-06 in 200 μL of PBS. For in vivo competition (binding specificity) studies, tumor-bearing mice were injected with 740 kBq (20 μCi) of [^64Cu]XYIMSR-06 and 200 nmole of 8 in 200 μL of PBS concurrently. At specific times after injection (1 h, 4 h, 8 h and 24 h), mice (n=5) were sacrificed by cervical dislocation with blood immediately collected by cardiac puncture. Heart, lungs, pancreas, spleen, fat, brain, muscle, small intestines, liver, stomach, kidney, urinary bladder, and tumor were also collected. Each organ was weighed and the tissue radioactivity was measured with an automated gamma counter (1282 Compugamma CS, Pharmacia/LKBNuclear, Inc., Mt. Waverly, Vic. Australia). The percentage of injected dose per gram of tissue (% ID/g) was calculated by comparison with samples of a standard dilution of the initial dose. All measurements were corrected for radioactive decay. Data were expressed as mean±standard deviation (SD). […]

CC(CCC(=O)N[C@@H](CC(=O)N[C@@H](CC(=O)N[C@@H](CCCCn1cc(CCCC(=O)Nc2nnc(S(N)(=O)=O)s2)nn1)C(=O)NCCOCCOCCNC(=S)Nc1ccc(CC2CN(CC(=O)[O-])CCN(CC(=O)[O-])CCN2CC(=O)O)cc1)C(=O)O)C(=O)O)(c1ccc(O)cc1)c1ccc(O)cc1.[64Cu+2] (stereo partly drawn) [[^64Cu]XYIMSR-06]
Biodistribution Bladder (1 h post-injection): 11.12 % ID/g
Biodistribution Blood (1 h post-injection): 0.66 % ID/g
Biodistribution Brain (1 h post-injection): 1.46 % ID/g
Biodistribution Fat (1 h post-injection): 0.80 % ID/g
Biodistribution Heart (1 h post-injection): 3.41 % ID/g
Biodistribution Kidney (1 h post-injection): 33.65 % ID/g
Biodistribution Liver (1 h post-injection): 3.25 % ID/g
Biodistribution Lung (1 h post-injection): 25.52 % ID/g
Biodistribution Muscle (1 h post-injection): 1.28 % ID/g
Biodistribution Pancreas (1 h post-injection): 2.94 % ID/g
Biodistribution Small intestine (1 h post-injection): 7.35 % ID/g
Biodistribution Spleen (1 h post-injection): 0.36 % ID/g
Biodistribution Stomach (1 h post-injection): 14.80 % ID/g
Biodistribution Tumor (1 h post-injection): 14.47 % ID/g
Tumor/Kidney ratio (1 h post-injection): 0.4
Biodistribution Bladder (4 h post-injection): 17.05 % ID/g
Biodistribution Blood (4 h post-injection): 0.33 % ID/g
Biodistribution Brain (4 h post-injection): 0.29 % ID/g
Biodistribution Fat (4 h post-injection): 0.52 % ID/g
Biodistribution Heart (4 h post-injection): 1.78 % ID/g
Biodistribution Kidney (4 h post-injection): 19.99 % ID/g
Biodistribution Liver (4 h post-injection): 2.18 % ID/g
Biodistribution Lung (4 h post-injection): 12.03 % ID/g
Biodistribution Muscle (4 h post-injection): 0.70 % ID/g
Biodistribution Pancreas (4 h post-injection): 1.36 % ID/g
Biodistribution Small intestine (4 h post-injection): 4.15 % ID/g
Biodistribution Spleen (4 h post-injection): 0.24 % ID/g
Biodistribution Stomach (4 h post-injection): 8.19 % ID/g
Biodistribution Tumor (4 h post-injection): 19.31 % ID/g
Tumor/Blood ratio (4 h post-injection): 57.7
Tumor/Kidney ratio (4 h post-injection): 1.0
Tumor/Muscle ratio (4 h post-injection): 29.4
Biodistribution Bladder (8 h + block (200 nmole of 8)): 1.45 % ID/g
Biodistribution Blood (8 h + block (200 nmole of 8)): 0.08 % ID/g
Biodistribution Brain (8 h + block (200 nmole of 8)): 0.04 % ID/g
Biodistribution Fat (8 h + block (200 nmole of 8)): 0.05 % ID/g
Biodistribution Heart (8 h + block (200 nmole of 8)): 0.16 % ID/g
Biodistribution Kidney (8 h + block (200 nmole of 8)): 1.82 % ID/g
Biodistribution Liver (8 h + block (200 nmole of 8)): 0.55 % ID/g
Biodistribution Lung (8 h + block (200 nmole of 8)): 0.77 % ID/g
Biodistribution Muscle (8 h + block (200 nmole of 8)): 0.05 % ID/g
Biodistribution Pancreas (8 h + block (200 nmole of 8)): 0.14 % ID/g
Biodistribution Small intestine (8 h + block (200 nmole of 8)): 0.38 % ID/g
Biodistribution Spleen (8 h + block (200 nmole of 8)): 0.14 % ID/g
Biodistribution Stomach (8 h + block (200 nmole of 8)): 0.69 % ID/g
Biodistribution Tumor (8 h + block (200 nmole of 8)): 2.39 % ID/g
Tumor/Blood ratio (8 h + block (200 nmole of 8)): 32.0
Tumor/Kidney ratio (8 h + block (200 nmole of 8)): 1.3
Tumor/Muscle ratio (8 h + block (200 nmole of 8)): 53.0
Biodistribution Bladder (8 h post-injection): 7.43 % ID/g
Biodistribution Blood (8 h post-injection): 0.13 % ID/g
Biodistribution Brain (8 h post-injection): 0.24 % ID/g
Biodistribution Fat (8 h post-injection): 0.28 % ID/g
Biodistribution Heart (8 h post-injection): 0.65 % ID/g
Biodistribution Kidney (8 h post-injection): 8.14 % ID/g
Biodistribution Liver (8 h post-injection): 0.99 % ID/g
Biodistribution Lung (8 h post-injection): 4.64 % ID/g
Biodistribution Muscle (8 h post-injection): 0.21 % ID/g
Biodistribution Pancreas (8 h post-injection): 0.47 % ID/g
Biodistribution Small intestine (8 h post-injection): 1.98 % ID/g
Biodistribution Spleen (8 h post-injection): 0.18 % ID/g
Biodistribution Stomach (8 h post-injection): 4.02 % ID/g
Biodistribution Tumor (8 h post-injection): 16.74 % ID/g
All other tumor/organ ratios (24 h): > 10.0
Biodistribution Bladder (24 h + block (200 nmole of 8)): 0.45 % ID/g
Biodistribution Blood (24 h + block (200 nmole of 8)): 0.01 % ID/g
Biodistribution Brain (24 h + block (200 nmole of 8)): 0.02 % ID/g
Biodistribution Fat (24 h + block (200 nmole of 8)): 0.01 % ID/g
Biodistribution Heart (24 h + block (200 nmole of 8)): 0.08 % ID/g
Biodistribution Kidney (24 h + block (200 nmole of 8)): 0.48 % ID/g
Biodistribution Liver (24 h + block (200 nmole of 8)): 0.42 % ID/g
Biodistribution Lung (24 h + block (200 nmole of 8)): 0.29 % ID/g
Biodistribution Muscle (24 h + block (200 nmole of 8)): 0.04 % ID/g
Biodistribution Pancreas (24 h + block (200 nmole of 8)): 0.07 % ID/g
Biodistribution Small intestine (24 h + block (200 nmole of 8)): 0.19 % ID/g
Biodistribution Spleen (24 h + block (200 nmole of 8)): 0.11 % ID/g
Biodistribution Stomach (24 h + block (200 nmole of 8)): 0.29 % ID/g
Biodistribution Tumor (24 h + block (200 nmole of 8)): 1.20 % ID/g
Tumor/Blood ratio (24 h + block (200 nmole of 8)): 27.1
Tumor/Kidney ratio (24 h + block (200 nmole of 8)): 2.4
Tumor/Muscle ratio (24 h + block (200 nmole of 8)): 49.0
Biodistribution Bladder (24 h post-injection): 0.34 % ID/g
Biodistribution Blood (24 h post-injection): 0.00 % ID/g
Biodistribution Brain (24 h post-injection): 0.13 % ID/g
Biodistribution Fat (24 h post-injection): 0.03 % ID/g
Biodistribution Heart (24 h post-injection): 0.12 % ID/g
Biodistribution Kidney (24 h post-injection): 0.90 % ID/g
Biodistribution Liver (24 h post-injection): 0.38 % ID/g
Biodistribution Lung (24 h post-injection): 1.27 % ID/g
Biodistribution Muscle (24 h post-injection): 0.02 % ID/g
Biodistribution Pancreas (24 h post-injection): 0.21 % ID/g
Biodistribution Small intestine (24 h post-injection): 0.47 % ID/g
Biodistribution Spleen (24 h post-injection): 0.09 % ID/g
Biodistribution Stomach (24 h post-injection): 0.65 % ID/g
Biodistribution Tumor (24 h post-injection): 6.2 % ID/g and 6.23 % ID/g
Tumor/Blood ratio (24 h post-injection): 142.6
Tumor/Muscle ratio (24 h post-injection): 261.3
Tumor uptake on co-injection of 200 nmole of 8 (mouse, in vivo): blocked tumor uptake
Radiotracer uptake within liver (within 24 h): no significant radiotracer uptake within liver
